# Patent USRE46228E1, “Pigmentation-regulating compounds” (LIPOTEC, S.A., priority 2007, dated 2016)
# How the values were obtained:
# human melanocytes = experiment: Depigmenting efficacy in human melanocyte cultures (microscopy count of melanin-containing cells); type: cell-based; details: 0.1 mM compound, 5 days, fresh medium daily; normalized to control sample (0)
# Description: The melanin content was is seen directly by means of microscopy using a 40 magnification lens. The depigmenting efficacy was is determined by counting the number of cells containing melanin and the total number of cells, and the obtained results were are normalized in relation to the whitening efficacy of a control sample.
# [1] = molecular target: T1, endogenous tyrosinase extracted from human melanocytes (Homo sapiens, UniProt P14679); experiment: Activity assay on endogenous tyrosinase extracted from human melanocytes (L-Dopa substrate, absorbance 475 nm); type: biochemical; details: 1 mM compound; 30 min incubation with enzyme; one hour after adding L-Dopa; relative to control (100)
# T1 construct: The endogenous tyrosine of the human melanocytes seeded at a confluence of 95% is extracted; endogenous in cells; host or cells: human melanocytes (cultured; extract used)
# T1 sequence (P14679 19-529): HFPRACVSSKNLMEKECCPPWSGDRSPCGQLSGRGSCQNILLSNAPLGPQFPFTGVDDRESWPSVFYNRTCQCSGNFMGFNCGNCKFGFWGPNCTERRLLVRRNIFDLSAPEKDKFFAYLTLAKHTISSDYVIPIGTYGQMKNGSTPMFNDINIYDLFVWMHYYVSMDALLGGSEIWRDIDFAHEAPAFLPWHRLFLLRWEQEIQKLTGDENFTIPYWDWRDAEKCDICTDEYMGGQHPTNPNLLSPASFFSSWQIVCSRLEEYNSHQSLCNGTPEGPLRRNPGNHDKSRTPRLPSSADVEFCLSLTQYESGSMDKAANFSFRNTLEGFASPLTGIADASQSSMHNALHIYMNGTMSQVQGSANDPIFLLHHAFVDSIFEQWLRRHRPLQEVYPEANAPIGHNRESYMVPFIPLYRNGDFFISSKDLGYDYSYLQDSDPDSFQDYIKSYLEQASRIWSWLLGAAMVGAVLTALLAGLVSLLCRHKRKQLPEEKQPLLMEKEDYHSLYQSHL
# Description: The human melanocytes are cultured in DMEM medium supplemented with 10% FBS, 1% penicillin/streptomycin and 100 nM PMA. […] The endogenous […] of the human melanocytes seeded at a confluence of 95% is extracted. The assay is performed after extracting and quantifying the enzymatic content. […] To check the enzymatic activity after the treatment, the synthetic L-Dopa (10 mM) substrate is added, measuring absorbance at a wavelength of 475 nm one hour after having added L-Dopa. This measurement allows evaluating the melanin content produced.
# human keratinocytes = experiment: Photoprotecting efficacy in human keratinocyte cultures (solar simulation irradiation, Neutral Red viability); type: cell-based; details: 150 μg/mL
# Description: The human keratinocytes were maintained in culture for 24 hours in 96 well plates to form monolayers and the cells were pre-incubated in the dark with 150 μg/mL of 7-methoxy-6-palmitoyl-2,2-dimethylchromane or saline phosphate buffer (control) for one hour at 37° C. and humidified air with 5% CO2. The cells were then irradiated with a solar simulation lamp with an energy of 37 J/cm^2 at room temperature for 150 minutes. A control plate was maintained in the dark for the same time at room temperature. The medium of the cells was replaced after the irradiation period with fresh medium and the cells were incubated for 24 additional hours. The cell viability was determined by means of the Neutral Red dye, measuring the optical density at 540 nm in a spectrophotometer.
# The photoprotecting efficacy was determined by comparing the viability obtained in the cells treated with 7-methoxy-6-palmitoyl-2,2-dimethylchromane in relation to the response of the irradiated and non-irradiated control cells.
# mushroom tyrosinase = experiment: Activity assay on the action of mushroom tyrosinase in vitro (L-Dopa substrate, melanin read at 492 nm); type: biochemical; details: melanin formed normalized to control sample (100), 10 min at 37° C.
# Description: The assay is performed in 96 well plates and the samples are performed in triplicate. The control sample contains 80 μL of buffer (150 mM HEPES), 10 μL of mushroom tyrosinase of 10 μg/μL and 10 μL of 10 mM L-Dopa substrate. […] The samples thus prepared are incubated at 37° C. for 10 minutes. Then the plate containing the samples is cooled for 5 minutes on ice to stop the enzymatic reaction. To quantify the melanin produced it is measured in the plate reader at a length of 492 nm.
SMILES,% DEPIGMENTING EFFICACY (human melanocytes),% MELANIN [1],PHOTOPROTECTTNG EFFICACY (human keratinocytes; viability of treated cells compared with irradiated and non-irradiated control cells),"viability at 150 µg/mL (human keratinocytes; Homo sapiens, Keratinocyte, light or radiation study, 1 h pre-incubation, irradiated 37 J/cm^2 for 150 min, 24 h later, non-irradiated control 100%, irradiated control 13.8%, read-out: CELL VIABILITY)",% MELANIN (mushroom tyrosinase; 1 mM compound),% MELANIN (mushroom tyrosinase; 0.1 mM compound)
"CCCCCCCCCCCCCCCC(=O)c1cc2c(cc1OC)OC(C)(C)CC2 [7-methoxy-6-palmitoyl-2,2-dimethylchromane]",45.9%,57.0%,254.9%,49.1%,63.0%,–
"O=c1cc(CO)occ1O [Kojic acid, reference compound]",30.2%,–,–,–,–,44.5%
"COc1cc2c(cc1O)CCC(C)(C)O2 [Lipochroman-6, 6-hydroxy-7-methoxy-2,2-dimethylchromane, reference compound]",–,79.8%,–,–,96.6%,–
